# “And” between values parts separate entries of the source, which are not always exact repeats. Identical values can stand only once.
# Assays:
# [1] = tested on: amyloid-beta peptides (Aβ 38/40/42); assay: CSF amyloid-beta peptides, 6-week study; format: in vivo, human; conditions: baseline to Day 41; p=0.01 to p=0.047
# Protocol: Effects on CSF levels of Aβ peptides were evaluated as measures of the amyloidenic process, which is activated with aging and more so in patients with Alzheimer's disease.
# Target engagement was assessed through the evaluation of the effect of drug treatment on CSF biomarkers. CSF was collected at 6 time-points over 24 hours at baseline (the 24 hours prior to first dose) and again at 6 time-points over 24 hours near the end of treatment on Day 40. The samples were evaluated by the Mesoscale Discovery ELISA platform for multiple cytokines ((IFN-γ, IL-1β, IL-2, IL-4, IL-5, IL-8, IL-12 protein 70, IL-13, TNFα, and CSF) and for amyloid-beta peptides (Aβ 38/40/42).
# [2] = Safety and tolerability, 12-week Phase IIa study (Example 1); format: in vivo, human; conditions: 40 mg or 125 mg twice daily, 12 weeks
# Protocol: (§1) Investigators and patients were blind to the dosage strength. […] Patients were instructed to take doses within 30 minutes following a meal or snack, with each dose taken approximately 12 hours apart at the same times each day throughout the study.
# (§2) Sixteen subjects completed the full 12 weeks of treatment and all were included in safety analyses. […] In the PK analysis, due to the sparse sampling collection design, the time period from 0 to 24 hours post-dose was divided into 4 blocks in order to show the distribution of concentrations over time. […] Average blood concentration of about 8 ng/mL at the 40 mg dose level was observed. This is higher than the 5 ng/mL.
# [3] = Plasma pharmacokinetics, 12-week Phase IIa study (Example 1); format: in vivo, human; conditions: 40 mg dose level, twice daily, 12-week study
# Protocol: as §1
# Dosing started on Day 1 following completion of all baseline procedures. During the treatment period, subjects returned to the clinic on Days 14, 28, 56, and 84. […] Dynamic PET scanning with fill quantitative analysis was performed at baseline and at the end of treatment.
# as §2
# [4] = Population pharmacokinetic analyses (Example 1 and Example 2 combined); format: in vivo, human; conditions: population PK
# Protocol: as §2
# [5] = Plasma and CSF pharmacokinetics, 6-week Phase IIa study (Example 2); format: in vivo, human
# Protocol: (§3) Investigators and patients were blinded to the dosage strength. The first 3 patients were randomly assigned to receive either 40 or 125 mg twice daily, with dosing level blinded. The remaining patients (up to 7 patients) received 40 mg twice daily on an open-label basis. […] Patients were instructed to eat a meal approximately 30 minutes before dosing with VX 745 with each dose taken approximately 12 hours (+/−3 hours) apart at the same times each day throughout the study.
# (§4) Quantitative EEG was conducted as a measure of the effects of inflammatory cytokines on synaptic function and the effects of modulation of p38 MAPK on synaptic plasticity. Brain fluorodeoxyglucose (FDG) PET scan was conducted at the Screening Visit and Day 40 to measure brain metabolism. In addition, CSF drug levels of VX-745 were obtained to confirm delivery of drug to the brain.
# [6] = tested on: patients with mild cognitive impairment (MCI) due to Alzheimer's disease (AD) or with mild AD; assay: Mini-Mental State Examination (MMSE), 12-week study (Example 1); format: in vivo, human; conditions: for subjects with an increase from screening of at least 1 in MMSE score: Day 84 (Visit 7)
# Text: (§5) The MMSE is a questionnaire used extensively in clinical and research settings to measure mental function. It is commonly used to screen for dementia, and to assess the severity and progression of dementia. The MMSE is an effective way to document a human subject's response to treatment. The test examines functions including registration, attention and calculation, recall, language, ability to follow simple commands and orientation.
# as §1
# [7] = tested on: brain-derived neurotrophic factor (BDNF); assay: Plasma BDNF levels by Somascan, 12-week study; format: in vivo, human; conditions: baseline vs after 84 days; n=10 subjects
# Protocol: FIG. 15 depicts plasma brain-derived neurotrophic, factor (BDNF) levels at baseline and after 84 days (n=10 subjects). BDNF levels were measured by Somascan®.
# [8] = Safety and tolerability, 6-week Phase IIa study (Example 2); format: in vivo, human; conditions: 6 weeks
# Protocol: as §3
# [9] = tested on: DS (Down's Syndrome) human fibroblasts; assay: EEA1-labeled early endosomes in Down's Syndrome human fibroblasts (Example 4); format: cell-based; conditions: 0, 1, 10, or 50 nM VX-745 for 24 hours
# Text: Down's Syndrome (DS, Trisomy 21) derived human fibroblasts provide a robust system for studying Alzheimer's related endosomal dysfunction as one of the Familial Alzheimer's disease (FAD) genes, Amyloid Precursor Protein (APP), is expressed on chromosome 21 and as a result inherently DS individuals overexpress APP and develop an Alzheimer's type dementia as they grow older beyond age 40 (Jiang, Y, et. al., “Alzheimer's-related endosome dysfunction in Down syndrome is Aβ-independent but requires APP and is reversed by BACE-1 inhibition,” PNAS 107:1630-1635 (2010)).
# In vitro, DS human fibroblasts show increased numbers and enlarged early endosomes by electron microscopy or by fluorescence staining with antibodies to EEA1 (Early Endosome Antigen 1). […] After incubation, the cells were fixed and incubated with anti-EEA1 antibody to label early endosomes.
# [10] = tested on: patients with mild cognitive impairment (MCI) due to Alzheimer's disease (AD) or with mild AD; assay: MMSE, 6-week study (Example 2); format: in vivo, human; conditions: baseline vs day 40; no statistical analyses
# Text: as §5
# Subjects were men and women between 60-85 years old, having a confirmed diagnosis of MCI due to AD or mild AD (consistent with National Institute of Aging and Alzheimer's Association research diagnostic guidelines) and a Mini-Mental State Examination (MMSE) score greater than 20. Inclusion criteria included gradual and progressive decline in memory function reported by patients or informants over more than 6 months; an amnestic presentation on formal neuropsychological testing that was characterized by a pattern of rapid forgetting, as determined by the PI/subinvestigator; evidence of functional decline as evidenced by a CDR sum of box score of ≥0.5; and MMSE score of 17 to 30, inclusive. […] A total of 9 subjects were enrolled and all were included in safety analysis; 8 subjects completed 6 weeks treatment and were included in pharmacodynamics analysis. […]
# [11] = Brain versus blood exposure in animals (preclinical PK); format: in vivo; conditions: brain relative to peripheral blood, read-out: exposure in the brains of animals relative to peripheral blood
# [12] = tested on: brain metabolism; assay: Brain FDG PET scan, 6-week study; format: in vivo, human; conditions: baseline to day 40
# Protocol: as §4
compound,measurement,setting,value
O=c1ncn2nc(Sc3ccc(F)cc3F)ccc2c1-c1c(Cl)cccc1Cl [VX-745],correlation between plasma drug concentration and increases in CSF Aβ 38/40/42 levels,[1],statistically significant correlation
same,liver transaminase elevations,[2],No liver transaminase elevations
same,serious adverse events,[2],No serious adverse events
same,tolerability,[2],well tolerated
same,Average blood concentration,[3],about 8 ng/mL
same,median 12-hour exposure,[4]; 40 mg dose level,0.078 µg·h/mL
same,median 12-hour exposure,[4]; 125 mg dose level,0.116 µg·h/mL
same,half-life,"[4]; human, plasma, oral, Examples 1 and 2 combined, read-out: terminal half-life (converted)",~16 h
same,average blood drug concentration (CAVG),[5]; 40 mg twice daily,8 ng/mL
same,expected VX-745 concentrations in the brain,[5]; extrapolated from CSF/plasma and preclinical data,~14 ng/mL and ~30 nM
same,Kp,"[5]; human, CSF relative to plasma, oral, same time point, read-out: CSF drug levels as share of plasma drug levels",0.06
same,half-life,"[5]; human, oral, 6-week study plasma PK, read-out: terminal half-life (converted)",10 h
same,Cmax,"[5]; human, plasma, oral, 40 mg twice daily",0.023 µg/mL
same,subjects with an increase from screening of at least 1 in MMSE score,[6]; 40 mg group,approximately 50%
same,patients with greater than a 3-point improvement in MMSE score over baseline,"[6]; 40 mg group, FIG. 2",two of four
same,subjects with an increase from screening of at least 1 in MMSE score,[6]; 125 mg group,~33%
same,plasma BDNF levels,[7],increases plasma BDNF levels
same,tolerability,[8]; 40 mg or 125 mg twice daily,well-tolerated
same,safety concerns,[8],No safety concerns were identified
same,safety laboratory and 12-lead ECG parameters,[8],no treatment-related or clinically relevant trends
same,Most common adverse events,[8]; 9 subjects,"mild dizziness, headache, and somnolence reported in 2 subjects each"
same,average number of EEA1-labeled endosomes per DS cell,[9],significantly reduced
same,average size of EEA1-labeled endosomes in DS cells,[9],significantly reduced
same,MMSE individual subject scores,[10],overall trends are encouraging
same,Kp,[11],~1.7
same,FDG-PET,[12],no change

# Source: patent US10420770B2, “Compositions and methods for treating dementia” (EIP Pharma, LLC, priority 2016, dated 2019)
